In article PMC7311425, “DREAM-in-CDM Approach and Identification of a New Generation of Anti-inflammatory Drugs Targeting mPGES-1” (Scientific Reports, 2020):
Several values for one entry are separate records, joined by “and”; a condition that tells them apart may be missing. Equal entries are not always repeated. Entries after “also recorded” stand apart in the source; their conditions may differ. Where two headings read alike, the source gives them in different places. Blank lines part the entries; values can stand above or below the compound they belong to.

Tests used:
human mPGES-1 [1] = target: T1, human mPGES-1 (Homo sapiens, UniProt O14684); assay: in vitro inhibitory activity against human mPGES-1 (PGE2 ELISA assay); assay type: biochemical; conditions: for inhibition at 10 µM: read-out: Inhibition (%) at 10 µM; for IC50: human mPGES-1
T1 construct: made in house
T1 sequence (O14684 1-152): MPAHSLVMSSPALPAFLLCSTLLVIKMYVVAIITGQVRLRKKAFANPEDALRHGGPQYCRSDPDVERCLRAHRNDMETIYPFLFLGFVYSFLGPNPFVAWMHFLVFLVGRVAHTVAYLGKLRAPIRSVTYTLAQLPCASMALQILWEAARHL
Procedure: The above computational predictions were followed by in vitro activity assays for their actual inhibitory activity against human mPGES-1 using an ELISA assay described in our previous reports[32]–[34]. […] Specifically, 15 FDA-approved drugs (see Fig. S1 of the Supporting Information for the molecular structures) were assayed for their inhibitory activity against human mPGES-1.
(§1) The protocol for the protein preparation and in vitro activity assays were the same as described previously[51]–[54]. The enzyme activity assays were performed on ice in 1.5 ml microfuge tubes by using the expressed human or mouse mPGES-1. The reaction mixture contained: 0.2 M Na2HPO4/NaH2PO4, pH 7.2, 10 µL; 0.1 M GSH, 2.5 µL; diluted microsomal enzyme (80 µg/mL), 1 µL; PGH2 (0.31 mM in DMF), 5 µL; 1 µL inhibitor; and H2O in a final reaction volume of 100 µL. PGH2 was stored in dry ice and used to initiate the reaction. Compounds were incubated with the enzyme for 15 min at room temperature before the addition of cold PGH2 ([…]) to initiate the enzyme reaction. After 30 s, 10 µL of SnCl2 (40 mg/mL) in ethanol was added to stop the reaction. The non-enzymatic conversion of PGH2 to PGE2 was performed in the same buffer devoid of enzyme. The reaction mixture was placed on ice until PGE2 production was determined by the PGE2 enzyme immunoassay as described earlier. IC50 values of the inhibitors were calculated by using the GraphPad Prism 7.

[2] = test system: mixed COX-1 and COX-2 (COX-1/2); assay: COX (ovine/human) inhibitor screening assay, mixed COX-1 and COX-2; assay type: biochemical; conditions: 100 µM; equal amounts of COX-1 and COX-2
Excerpt: We used a mixture of equal amounts of purified COX-1 and COX-2 proteins and followed the protocol recommended by the vendor.

human mPGES-1 [3] = target: T1, human mPGES-1; assay: mPGES-1 enzyme activity at various GSH concentrations, Lineweaver-Burk plots; assay type: biochemical
Procedure: as §1

air-pouch PGE2 level = assay: mouse air-pouch model of inflammation (carrageenan), air-pouch PGE2 by ELISA; assay type: in vivo
Procedure: The air-pouch fluid collected from mice were analyzed by ELISA assay for the PGE2 concentrations. GraphPad Prism 7 software (GraphPad Software, La Jolla, CA) was used to perform the one-way analysis of variance (ANOVA) with post hoc tests.
All the animal experiments were conducted in our animal laboratories in the University of Kentucky’s Division of Laboratory Animal Resources (DLAR) facility (PHS assurance number A3336-01; USDA number 61-R-0002; AAALAC, Intl. Unit # 13) following the guidelines and regulations of the AAALAC and National Institutes of Health (NIH). The animal procedure used in this project was approved by the University of Kentucky’s Institutional Animal Care and Use Committee (IACUC). The air-pouch model of inflammation[23],[55] is widely used for determining the in vivo effectiveness of inhibitors of prostaglandin synthesis. Air pouches were produced by duplicate injections of 3 mL of sterile air under the skin on the back of mice. […] The air-pouch fluid samples were analyzed for PGE2 by the same ELISA method used in the in vitro enzyme activity assay mentioned above.
GraphPad Prism 7 software (GraphPad Software, La Jolla, CA) was used to perform the one-way analysis of variance (ANOVA) with post hoc testing, allowing us to examine the significance of the difference in the in vivo activity data between each pair of dose conditions. p < 0.05 was considered statistically significant.

[4] = predicted Cmax in human organs from rat organ/plasma ratios; assay type: in vivo; conditions: 50 mg, from rat organ/plasma ratios [56]
Excerpt: In addition, the reported ratios of Cmax values in various organs of rat to Cmax in rat plasma, along with the Cmax values in human plasma, were used to predict the Cmax values in the corresponding organs of human corresponding to the Cmax values in human plasma.

[5] = cited from earlier work
[6] = human, read-out: Cmax (µM) in plasma, cited from earlier work
[7] = mouse, in vivo; cited from earlier work

SMILES: COc1cc(C)c(/C=C/C(C)=C/C=C/C(C)=C/C(=O)O)c(C)c1C [Acitretin]
- inhibition at 10 µM (human mPGES-1 [1]; 10 µM, single concentration): 83%
- IC50 (human mPGES-1 [1]): 3.5 ± 1.6 µM

SMILES: CC(C)(C)C(=O)OCOP(=O)(COCCn1cnc2c(N)ncnc21)OCOC(=O)C(C)(C)C [Adefovir Dipivoxil]
- inhibition at 10 µM (human mPGES-1 [1]; 10 µM, single concentration): 19%

SMILES: OCCN(CCO)c1nc(N2CCCCC2)c2nc(N(CCO)CCO)nc(N3CCCCC3)c2n1 [Dipyridamole]
- inhibition at 10 µM (human mPGES-1 [1]; 10 µM, single concentration): 36%

SMILES: COc1cc2nc(N3CCN(C(=O)C4COc5ccccc5O4)CC3)nc(N)c2cc1OC (stereo not drawn) [Doxazosin]
- inhibition at 10 µM (human mPGES-1 [1]; 10 µM, single concentration): 21%

SMILES: C[C@]12CC[C@@H]3c4ccc(OC(=O)N(CCCl)CCCl)cc4CC[C@H]3[C@@H]1CC[C@@H]2OP(=O)(O)O [Estramustine Phosphate]
- inhibition at 10 µM (human mPGES-1 [1]): 36%

SMILES: CS(=O)(=O)CCNCc1ccc(-c2ccc3ncnc(Nc4ccc(OCc5cccc(F)c5)c(Cl)c4)c3c2)o1 [Lapatinib]
- inhibition at 10 µM (human mPGES-1 [1]; 10 µM, single concentration): 99%
- IC50 (human mPGES-1 [1]): 0.8 µM and ~0.8 µM
- inhibition of COX-1/2 [2]: did not significantly inhibit
- effect on Vmax (human mPGES-1 [3]; 1 µM lapatinib): did not significantly change
- mode of inhibition with respect to GSH (human mPGES-1 [3]; 1 µM lapatinib, GSH at different concentrations): competes with co-factor GSH; also recorded: GSH-competitive inhibitor
- y-intercept of Lineweaver-Burk plot (1/Vmax) (human mPGES-1 [3]; in the presence of 1 µM lapatinib (0.15 ± 0.02 in the absence)): 0.18 ± 0.02
- effect on air-pouch PGE2 level (air-pouch PGE2 level; carrageenan-treated mice, PO, 24 hours): significantly and dose-dependently decreased
- effectiveness in comparison with celecoxib 50 mg/kg (PO) (air-pouch PGE2 level; lapatinib 50 mg/kg PO): less effective
- difference in in vivo potency versus 50 mg/kg celecoxib (PO) (air-pouch PGE2 level; lapatinib 100 mg/kg PO): no significant difference
- Cmax ([4]; read-out: Predicted Cmax (µM) Kidney): ~1.3 µM
- Cmax ([4]; read-out: Predicted Cmax (µM) Lung): ~2 µM
- dose-limiting toxicity (DLT) ([5]; Phase I dose-escalation, up to 7000 mg per day in twice-daily dosing): no dose-limiting toxicity
- adverse effects in phase I clinical trials ([5]; non-cancer patients): did not cause any serious adverse effects
- Cmax ([6]; 10 mg, GW572016 ditosylate monohydrate oral suspension, ref Bence et al.[38]): 0.019 µM
- Cmax ([6]; 25 mg, GW572016 ditosylate monohydrate oral suspension, ref Bence et al.[38]): 0.04 µM
- Cmax ([6]; 50 mg, GW572016 ditosylate monohydrate oral suspension, ref Bence et al.[38]): 0.124 µM
- Cmax ([6]; 100 mg, GW572016 ditosylate monohydrate oral suspension, ref Bence et al.[38]): 0.213 µM
- Cmax ([6]; 175 mg, GW572016 ditosylate monohydrate oral suspension, ref Bence et al.[38]): 0.38 µM
- Cmax ([6]; 250 mg, GW572016 ditosylate monohydrate oral suspension, ref Bence et al.[38]): 0.546 µM
- Cmax ([6]; 500 mg, 100-mg and 250-mg tablets, daily oral, ref clinical trial EGF10004): 1.76 µM
- Cmax ([6]; 650 mg, 100-mg and 250-mg tablets, daily oral, ref clinical trial EGF10004): 2.24 µM
- Cmax ([6]; 900 mg, 100-mg and 250-mg tablets, daily oral, ref clinical trial EGF10004): 2.93 µM
- Cmax ([6]; 1000 mg, 100-mg and 250-mg tablets, daily oral, ref clinical trial EGF10004): 3.18 µM
- Cmax ([6]; 1250 mg orally once daily, ref clinical trial NCT00477464): 6.06 µM
- Cmax ([6]; 1500 mg, 6 pills at 250 mg once oral daily, average of 36 data points from 6 subgroups, ref clinical trial NCT00486954 and NCT01138046): 8.6 µM

SMILES: Cc1ccccc1C(=O)Nc1ccc(C(=O)N2CCCC(O)c3cc(Cl)ccc32)c(C)c1 (stereo not drawn) [Tolvaptan]
- inhibition at 10 µM (human mPGES-1 [1]; 10 µM, single concentration): 52%
- IC50 (human mPGES-1 [1]): 10.2 ± 2.5 µM

SMILES: Cc1ccc(-c2cc(C(F)(F)F)nn2-c2ccc(S(N)(=O)=O)cc2)cc1 [celecoxib]
- toxicity in mice [7]: significant toxicity

Results, then the compound that gave them:

- inhibition at 10 µM (human mPGES-1 [1]; 10 µM, single concentration): 22%
SMILES: COc1cc2nc(N(C)CCCNC(=O)C3CCCO3)nc(N)c2cc1OC (stereo not drawn) [Alfuzosin]

- inhibition at 10 µM (human mPGES-1 [1]; 10 µM, single concentration): 11%
SMILES: CCCCC[C@H](O)/C=C/[C@H]1[C@H](O)CC(=O)[C@@H]1CCCCCCC(=O)O [Alprostadil]

- inhibition at 10 µM (human mPGES-1 [1]; 10 µM, single concentration): 68%
- IC50 (human mPGES-1 [1]): 3 ± 1.1 µM
SMILES: C=C1/C(=C\C=C2/CCC[C@]3(C)[C@@H]([C@H](C)/C=C/[C@@H](O)C4CC4)CC[C@@H]23)C[C@@H](O)C[C@@H]1O [Calcipotriene]

- inhibition at 10 µM (human mPGES-1 [1]; 10 µM, single concentration): 47%
- IC50 (human mPGES-1 [1]): 29.7 ± 6.3 µM
SMILES: COCC1=C(C(=O)O)N2C(=O)[C@@H](NC(=O)/C(=N\OC)c3csc(N)n3)[C@H]2SC1 [Cefpodoxime]

- inhibition at 10 µM (human mPGES-1 [1]; 10 µM, single concentration): 4%
SMILES: CCCCC[C@H](O)/C=C/[C@H]1[C@H](O)CC(=O)[C@@H]1C/C=C\CCCC(=O)O [Dinoprostone]

- inhibition at 10 µM (human mPGES-1 [1]; 10 µM, single concentration): 36%
SMILES: CC1(C)S[C@@H]2[C@H](NC(=O)COc3ccccc3)C(=O)N2[C@H]1C(=O)O [Penicillin V Potassium]

- inhibition at 10 µM (human mPGES-1 [1]; 10 µM, single concentration): 44%
SMILES: C[C@]12C=CC(=O)C=C1CC[C@@H]1[C@@H]2[C@@H](O)C[C@@]2(C)[C@H]1CC[C@]2(O)C(=O)CO [Prednisolone]

- inhibition at 10 µM (human mPGES-1 [1]; 10 µM, single concentration): 54%
- IC50 (human mPGES-1 [1]): 9 ± 2.3 µM
SMILES: CCOC(=O)[C@H](CCc1ccccc1)N[C@@H](C)C(=O)N1[C@H](C(=O)O)C[C@H]2CCCC[C@@H]21 [Trandolapril]
